The record followed here is PMC8234462, “Novel Cyclophilin Inhibitor Decreases Cell Proliferation and Tumor Growth in Models of Hepatocellular Carcinoma” (Cancers, 2021).

The structures appear in SMILES notation. “Also recorded” adds a separate entry of the source.

One series concerns the target Cyp40 (Homo sapiens, UniProt Q08752). The series can be described thus: PPIase activity assay (chymotrypsin-coupled). Format: biochemical. As to conditions: free-cell assay; Cyp equilibrated 1 h at 5 °C with inhibitor; read-out: absolute IC50, PPIase activity Cyp40. The protocol: (§1) The PPIase activity of CypA, CypB, CypD and Cyp40 was determined by following the rate of hydrolysis of N-succinyl-Ala-Ala-Pro-Phe-p-nitroanilide by chymotrypsin, a digestive enzyme that only hydrolyzes the trans form of the peptide. Therefore, the hydrolysis of the cis form, the concentration of which is maximized by using a stock dissolved in trifluoroethanol containing 470-mM LiCl, is only possible with the isomerization from the cis to the trans form. […] The reaction was started with the peptide addition, and the change in absorbance was monitored spectrophotometrically at a 6-s interval for 6 min. The blank rates of hydrolysis (in the absence of Cyps) were subtracted from the rates in the presence of Cyps. The initial rates of the enzymatic reaction were analyzed by a first-order regression analysis of the time course of the change in absorbance.

Another series deals with CypA (Homo sapiens, UniProt P62937). In words: PPIase activity assay (chymotrypsin-coupled). Format: biochemical. Particulars: free-cell assay; Cyp equilibrated 1 h at 5 °C with inhibitor; read-out: absolute IC50, PPIase activity CypA. As for the experimental part: as §1
Chain of CypA (P62937 whole entry): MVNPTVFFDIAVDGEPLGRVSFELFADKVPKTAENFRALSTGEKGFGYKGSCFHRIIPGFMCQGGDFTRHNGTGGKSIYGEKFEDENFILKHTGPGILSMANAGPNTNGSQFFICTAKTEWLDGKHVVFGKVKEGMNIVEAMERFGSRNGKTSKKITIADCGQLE
In a further series the target is CypB (Homo sapiens, UniProt P23284). The series can be described thus: PPIase activity assay (chymotrypsin-coupled). Particulars: free-cell assay; Cyp equilibrated 1 h at 5 °C with inhibitor; read-out: absolute IC50, PPIase activity CypB. Format: biochemical. The protocol: as §1
Chain of CypB (P23284 34-216): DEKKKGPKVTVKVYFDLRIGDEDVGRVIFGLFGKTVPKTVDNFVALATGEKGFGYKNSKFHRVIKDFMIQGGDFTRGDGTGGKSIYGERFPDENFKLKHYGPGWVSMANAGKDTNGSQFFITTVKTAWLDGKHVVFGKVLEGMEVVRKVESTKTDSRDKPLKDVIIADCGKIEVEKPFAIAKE
In a further series the target is CypD (Homo sapiens, UniProt P30405). In words: PPIase activity assay (chymotrypsin-coupled). As to conditions: free-cell assay; Cyp equilibrated 1 h at 5 °C with inhibitor; read-out: absolute IC50, PPIase activity CypD. Format: biochemical. As for the experimental part:
as §1

In the next series the test system is Bone marrow progenitors. The series can be described thus: Cytotoxicity, colony formation. The class given is cell-based, human. Particulars: Homo sapiens, 336 h, 14 days of treatment, colonies counted. As for the experimental part: The evaluation of the off-target effects of NV651 was performed by ImQuest BioSciences Inc. (Frederick, MD, USA) by analyzing the cytotoxicity in a panel of primary cells. NV651 was evaluated at a concentration of 30 µM and five serial half-logarithmic dilutions in triplicate. The positive control compounds for each cell type were purchased from Sigma-Aldrich (St. Louis, MO, USA) and were as follows: Unstimulated human peripheral blood mononuclear cells (PBMCs), phytohemagglutinin (PHA)-stimulated PBMCs, monocytes/macrophages, dendritic cells, hepatocytes, induced pluripotent stem cell (iPS) neurons: […] AZT, kidney cells (RPTEC): cisplatin and iPS cardiomyocytes: Doxazosin. Bone marrow progenitor cells (Invitrogen, Waltham, MA, USA) were suspended in cell culture medium (Iscove-modified Dulbecco medium) containing 15% FBS, 10% giant tumor-conditioned medium (Bone Marrow Plus, Sigma-Aldrich, St. […] Cells (1 × 10^5 cells/well) were seeded in 6-well plates containing NV651 in triplicate. Cells were incubated for 14 days, and colonies (more than 30 cells) were counted.

Series [1] in a line: In vivo toxicity, body weight. Particulars: BALB/c nude mice; 25, 50 or 200 mg/kg daily IP for 5 days. The protocol: All the procedures related to animal handling, care and the treatment in this study were performed according to the guidelines approved by the Institutional Animal Care and Use Committee (IACUC) of Shanghai ChemPartner Ltd. (Shanghai, China) following the guidance of the Association for Assessment and Accreditation of Laboratory Animal Care (AAALAC). BALB/c nude mice were kept in individual ventilation cages at a constant temperature and humidity, with 5 animals in each cage. Animals had free access to irradiation-sterilized dry granule food during the entire study period and water. BALB/c nude mice between 6–8 weeks were treated with either 25, 50 or 200 mg/kg dissolved in 25% buffered beta OH cyclodextrin (n = 5 mice per treatment). Daily doses were given intraperitoneally (IP) for 5 days. Mice were weighted daily until the 6th day.

In a further series the test system is Luc+ HEPG2 xenograft. In words: In vivo efficacy, xenograft tumor growth. The arrangement: species or system NMRI nude mice. Particulars: 10 mg/kg daily subcutaneous. The protocol:
Twenty-five percent buffered Hydroxy Propyl beta Cyclodextrin (HPbCD) was prepared from Hydroxy Propyl beta Cyclodextrin (Roquette, Lestrem, France), EDTA solution and phosphate buffer at a pH of 7.4, filtered with a […] (VWR, Cat# 28145-483, Radnor, PA, USA) and stored at 4 °C. NV651 was prepared at a concentration of 10 mg/kg with 25% buffered HPbCD (vehicle). NV651 solution was sonicated for 30 min in a water bath sonicator (Bioruptor, Diagenode, Denville, NJ, USA) and shaken for up to an hour, followed by a secondary sterilization with a 0.2-µm filter. NV651 solution was stored at 4 °C up to 2 weeks, with stability confirmed up to 3 weeks.
HEPG2 cells were transduced with RediFect Red-FLuc-GFP (Perkin Elmer, Cat# CLS960003, Waltham, MA, USA) with a MOI = 3 and sorted for GFP^+ in a FACSAria III (BD Biosciences, Franklin Lakes, NJ, USA). […] Cell viability and a percentage of the GFP^+ cells were analyzed before the start of the in vivo experiment with a BD FACSverse cytometer (BD Biosciences, Franklin Lakes, NJ, USA). […]
Tumor growth was assessed with an in vivo imaging system (IVIS) one week after the injection of the cells. […] Body weights were measured at time 0 of the treatment and twice a week after the beginning of the treatment. […] Tumor growth was analyzed for up to 3 weeks. […]

Chain of Cyp40 (Q08752 whole entry): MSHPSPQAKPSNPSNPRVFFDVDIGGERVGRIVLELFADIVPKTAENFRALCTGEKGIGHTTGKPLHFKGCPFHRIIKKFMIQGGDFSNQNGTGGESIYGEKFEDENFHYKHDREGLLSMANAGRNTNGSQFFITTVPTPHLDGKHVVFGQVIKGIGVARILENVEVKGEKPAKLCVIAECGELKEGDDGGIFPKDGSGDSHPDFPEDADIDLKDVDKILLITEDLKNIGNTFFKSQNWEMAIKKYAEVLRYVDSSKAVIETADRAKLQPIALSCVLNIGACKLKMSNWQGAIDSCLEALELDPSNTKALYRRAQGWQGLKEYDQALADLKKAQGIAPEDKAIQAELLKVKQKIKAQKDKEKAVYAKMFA
Chain of CypD (P30405 30-207): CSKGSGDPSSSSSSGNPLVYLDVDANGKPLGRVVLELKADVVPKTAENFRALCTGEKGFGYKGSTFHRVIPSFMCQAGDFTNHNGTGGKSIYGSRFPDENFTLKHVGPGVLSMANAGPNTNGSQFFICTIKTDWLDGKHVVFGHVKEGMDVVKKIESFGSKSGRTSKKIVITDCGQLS

Usually IC50 stands for the concentration that gives 50% inhibition. As for `CC(=O)CCC1C(=O)NC(C(C)C)C(=O)NC(Cc2cc(O)cc(F)c2)C(=O)N2CCCC(N2)C(=O)OC(C(C)=CC=CC(=O)OC(C)(C)C)CC=CC=CC(O)C(C)C1O` (centres unmarked) [NV651], the IC50 was 0.821 nM on Cyp40; 0.49 nM at CypA; 0.824 nM at CypB; 0.842 nM at CypD; greater than 30000 nM in the series with Bone marrow progenitors. Besides, the body weight change result in series [1] is on record as “no significant weight loss or other clinical signs; also recorded: no body weight losses”. Further, the “luminescence signal (tumor growth, IVIS) vs vehicle” value in the series on Luc+ HEPG2 xenograft (after 3 weeks of treatment) was “significantly reduced”. The “tumor growth by caliper measurements vs vehicle” value in the series on Luc+ HEPG2 xenograft (up to 3 weeks) is listed as “reduced tumor growth”.
